# Like-named read-outs stand apart in the source and are kept apart here.
# Tests used:
# MCF‐7 cells [1] = system: MCF‐7 cells; set-up: method as in PMID 36807947; conditions: 470 nm LED, 17±1.64 J/cm^2, published previously, read-out: Light IC50 (converted); cited from earlier work
# HeLa cells = system: HeLa cells; set-up: method as in PMID 31743947; conditions: 9.6 J/cm^2, 500 nm irradiation; cited from earlier work
# CHO cells [2] = test: ROS imaging with H2DCFDA in live cells; format: cell-based, Chinese Hamster; conditions: 30 μM, 17 h; 488 nm (0.38 mW/cm^2) for 5 minutes
# Method: To study the production of ROS in a live cell environment a commercial ROS dye, H2DCFDA was used. CHO and MCF‐7 cells were incubated with MB2PI (30 μM, 17 h), washed with PBS and co‐stained with H2DCFDA (5 μM, 30 min). To ensure no photoactivation of MB2PI, emission from H2DCFDA was collected alone prior to the excitation of the BODIPY. The complex was then irradiated continuously at 488 nm (0.38 mW/cm^2) for 5 minutes. […] Weak emission of H2DCFDA was observed prior to irradiation, consistent with the low cytotoxicity of the complex. However, after irradiation, the fluorescence intensity of the ROS dye increases dramatically indicating ROS production, consistent with the high phototoxicity of MB2PI in both test cell lines. The higher phototoxicity of MB2PI in MCF‐7 cells restricted the ROS imaging study to CHO cells as the MCF‐7 cells began to die rapidly upon irradiation. Controls completed by adding H2DCFDA in test cells without MB2PI confirmed no ROS production with or without irradiation at 488 nm.
# Figure S32. DPBF (10 mM) 1O2 scavenger assay with B2P, MB2P, B2PI or MB2PI in methanol from 0-210 seconds irradiation, where absorbance at 410 nm was recorded every 30 seconds.
# CHO and MCF-7 cells were treated with MB2PI (30 µM, 17 h) for the ROS imaging studies. […]
# A 63x oil immersion objective was used to acquire images. The irradiance was determined using a power meter from Edmund Optics. […]
# CHO cells [3] = test: Hypoxic phototoxicity (CoCl2 induced hypoxia); format: cell-based, Chinese Hamster; conditions: Cricetulus griseus, 300 μM CoCl2 4 h, 470 nm LED, maximum 1 μM tested, read-out: hypoxic IC50 (light)
# Method: (§1) Cobalt chloride (CoCl2), a popular chemical hypoxia inducer, was added to the cells (after incubation with B2PI or MB2PI) at a total concentration of 300 μM CoCl2 in media and incubated for 4 h to mimic hypoxic conditions. In comparison to low‐oxygen induced hypoxia, this method stabilises hypoxia inducible factor 1 alpha subunit (HIF‐1α) for some hours after treatment, allowing a greater window for the phototoxicity studies.[52] We have previously confirmed the chemical induction of hypoxia with CoCl2 using an enzyme linked immunosorbent assay to detect HIF‐1α in cell lysates.[53] The cells were irradiated immediately upon removal of the media/CoCl2 solution as per the normoxic phototoxicity protocol.
# (§2) Dark‐ and photo‐toxicity studies were performed by seeding CHO and MCF‐7 cells in clear 96‐well plates (Nunc) and treating with varying concentrations of B2P, MB2P, B2PI and MB2PI. Phototoxicity experiments were carried out using a 470 nm LED. For hypoxic phototoxicity studies, hypoxia was mimicked by adding CoCl2 to the cells prior to irradiation. Cell viability was determined using the alamar blue assay and absorbance measured with a BMG LABTECH CLARIOstar plate reader.
# (§3) Hypoxic Phototoxicity Studies
# (§4) Hypoxic phototoxicity studies were performed as per routing phototoxicity protocol. Hypoxia […]
# (§5) A 1 M stock of CoCl2 in sterile 1X PBS […]
# MCF‐7 cells [4] = test: Hypoxic phototoxicity (CoCl2 induced hypoxia); format: cell-based; conditions: Homo sapiens, MCF7, 300 μM CoCl2 4 h, 470 nm LED, maximum 1 μM tested, read-out: hypoxic IC50 (light)
# Method: as §1, §2, §3, §4, §5
smiles,measurement,setting,value
CC1=C(I)C(C)=[N+]2C1=C(c1ccccc1)c1c(C)c(-c3ccc4c5cccc6cccc(c7cccc3c74)c65)c(C)n1[B-]2(F)F [B2PI],IC50,MCF‐7 cells [1],235 nM
CC1=CC(C)=[N+]2C1=C(c1ccccc1)c1c(C)c(-c3ccc4c5cccc6cccc(c7cccc3c74)c65)c(C)n1[B-]2(F)F [B2P],phototoxic index (PI),HeLa cells,1041
CC1=C(c2ccc3c4cccc5cccc(c6cccc2c63)c54)C(C)=[N+]2C1=C(c1c(C)cc(C)cc1C)c1c(C)c(I)c(C)n1[B-]2(F)F [MB2PI],ROS production (H2DCFDA fluorescence) after irradiation,CHO cells [2],increased production of ROS
same,IC50,CHO cells [3],> 1000 nM
same,IC50,MCF‐7 cells [4],> 1000 nM

# — PMC11653243, “Enhancing Phototoxicity in BODIPY‐Perylene Charge Transfer Dyads by Combined Iodination and Mesylation” (Chemistry (Weinheim an Der Bergstrasse, Germany), 2024)
